According to patent US20090239926A1, “METHODS FOR THE TREATMENT OF PSORIASIS OR PSORIATIC ARTHRITIS USING CYCLOPROPYL-N-CARBOXAMIDE” (priority 2008, published 2009):
pIC50: −log10 of the molar value. “And” between values parts separate entries of the source, which are not always exact repeats. Equal values may be shown once.

Experiments:
[1] = tested on: collagen-induced arthritis in male DBA/1 mice; experiment: Type II collagen-induced mice arthritis model; assay type: in vivo; settings: 25 mg/kg orally once a day for 10 days
Experimental: Collagen-Induced Arthritis Animal Model: Type II collagen purified from the cartilage of a young calf was dissolved at 4 mg/ml in 0.1M acetic acid and emulsified with an equal volume of complete Freund's adjuvant (CFA). DBA/1 mice (8-12 weeks of age) were then immunized at two sites at the base of the tail on Day 1 with 100 μl of the emulsion.
Treatment regime and measurement of clinical score: 14 animals per test group were treated orally once a day for 10 days (Days 1-10) with vehicle (0.5% carboxymethyl-cellulose/0.25% Tween 80), or Compound A suspended in vehicle at 5 mg/kg or 25mg/kg. The experiment was terminated on Day 10. Mice were monitored daily for signs of arthritis and scored using an established clinical scoring system, where: 0=normal, 1=slight swelling and/or erythema, and 2=pronounced edematous swelling. Each limb was graded, giving a maximum score of 8 per mouse. In addition, paw-swelling was measured using calipers.
Histology: At the end of the experiment, paws from treated mice were fixed in formal saline, decalcified and embedded in wax, sectioned and stained with hematoxylin and eosin. […]

[2] = tested on: LPS-stimulated monocyte TNF-α production; experiment: LPS-induced TNF-α production in monocytes; assay type: cell-based; settings: Homo sapiens, LPS 10 ng/ml, 24 hours
Experimental: LPS-induced TNF-α production in Monocytes: Monocytes separated from human peripheral blood mononuclear cells (PBMCs) were plated into a 96-well flat bottom plate at 1×10^5/well in RPMI (5% heat inactivated fetal calf serum (FCS) and then treated with increasing concentrations of Compound A and control (in triplicate). Following a 30 minute pre-incubation period, the monocytes were stimulated with LPS (10 ng/ml) and cultured for 24 hours at 37° C. in 5% CO2. The supernatants are then harvested and analyzed by ELISA.

[3] = tested on: LPS-induced serum TNF-α in female BALB/c mice; experiment: Mouse LPS-induced serum TNF-α production; assay type: in vivo; settings: po
Experimental: Mouse LPS-induced serum TNF-α production: Compound A was administered to female BALB/c mice orally by gavage two hours prior to LPS challenge. Blood was drawn 1.5 hours after LPS challenge, and serum TNF-α was measured as described above.

[4] = tested on: IL-5 production by human CD4+ T cells; experiment: IL-5 production by CD4+ T cells; assay type: cell-based; settings: CD4+ T cell, stimulated with CD3 antibody OKT3 and CD28 antibody CD28.2
Experimental: CD4^+ T cells were purified from human leukocytes obtained from the Blood Center of New Jersey (East Orange, N.J.) by negative selection (Schafer, P. H., et al., J Immunol, 1999. 162(12): 7110-9). CD4^+ T cells were stimulated with CD3 antibody OKT3 (purified from OKT3 hybridoma supernatant) and CD28 antibody CD28.2 (BD Pharmingen) (Hatzelmann, A. and C. Schudt, J Pharmacol Exp Ther, 2001. 297(1): 267-79). IL-5 was measured by ELISA (R&D Systems).

pIC50 [2]: 7.40
IC50 [4]: 520 nM and 0.25 µg/mL
SMILES: CCOc1cc([C@@H](CS(C)(=O)=O)N2Cc3cccc(NC(=O)C4CC4)c3C2=O)ccc1OC [Compound A, cyclopropyl-N-{2-[(1S)-1-(3-ethoxy-4-methoxyphenyl)-2-(methylsulfonyl)ethyl]-3-oxoisoindoline-4-yl}carboxamide]
clinical severity of arthritis (clinical score) ([1]; FIG. 3): effective in reducing the clinical severity of arthritis
histological severity of arthritis ([1]; P<0.05, FIG. 4): reduced the histological severity of arthritis
inhibition at 0.1 mg/kg ([3]; 2 h, 0.1 mg/kg p.o., two hours prior to LPS, n=2, read-out: inhibition of mouse LPS-induced serum TNF-α levels): 3%
inhibition at 1 mg/kg ([3]; 2 h, 1 mg/kg p.o., two hours prior to LPS, n=2, read-out: inhibition of mouse LPS-induced serum TNF-α levels): 83%
ED50 ([3]; read-out: Mouse LPS-induced serum TNF-α inhibition ED50): 0.1 to 1 mg/kg
